Assay results: patent US20120171286A1, “METHODS AND COMPOSITIONS FOR THE TREATMENT AND DIAGNOSIS OF STATIN-INDUCED MYOPATHY” (Beth Isreal Deaconess Medical Center, priority 2009, published 2012)

What was measured:
[1] = test system: myotubes derived from atrogin-1 wildtype mice (+/+); assay: Myotube diameter and morphology, myotubes from wildtype mice; format: cell-based, mouse; settings: for fiber diameter in myotube culture: 2.5 μM compound alone
Experimental: (§1) Myotube fiber size: Size was quantified by measuring a total of 200 tube diameters as described in Sandri et al. (Cell 117:399-412, 2004). Briefly, muscle fiber size from four random fields at 100-fold magnification was measured using IMAGE software (Scion). All data were expressed as the mean +/− S.E.M.

atrogin-1 protein = assay: Atrogin-1 protein in myotubes by Western blotting; format: cell-based, mouse; settings: for atrogin-1 protein expression: 30 μM compound
Experimental: Western blotting: Cultured cells after treatment were collected at specific times and solubilized in RIPA lysis buffer (50 mM Tris-HCl, pH 7.4, 150 mM NaCl 1% NP-40, 0.5% sodium deoxycholate, 0.1% SDS (Boston Bioproducts)), protease (Roche) and phosphatase (Sigma) inhibitor cocktail). Proteins were separated by SDS-PAGE, transferred to PVDF membranes and visualized by Western blotting using alkaline phosphatase-based CDP-star chemiluminescent detection according to the manufacturer's protocol (Applied Biosystems). Polyclonal anti-atrogin-1 antibody was used as described in Bdolah et al. (Am. J. Physiol. Reg. Integr. Comp. Physiol. 292:R971-R976, 2007). Anti-actin and dynein antibodies were from Santa Cruz Biotechnology.

atrogin-1 mRNA = assay: Atrogin-1 mRNA level in myotubes by real-time PCR; format: cell-based, mouse; settings: for atrogin-1 mRNA expression: 30 μM compound; for atrogin-1 expression in myotube culture: 2.5 μM compound alone, mRNA and protein (FIGS. 7C-7D)
[2] = test system: myotubes derived from atrogin-1 knockout mice (−/−); assay: Myotube diameter and morphology, myotubes from atrogin-1 knockout mice; format: cell-based, mouse
Experimental: as §1

zebrafish embryos = assay: Zebrafish embryo myofiber damage, myosin heavy chain staining; settings: for fiber diameter in zebrafish embryos: 2.5 μM compound alone
Experimental: Zebrafish lines and maintenance: Adult zebrafish (Danio rerio) were maintained as described under standard laboratory conditions at 28.5° C. in a 14 hour light/10 hour dark cycle (Westerfield, in Institute of Neuroscience University of Oregon, Eugene, Oreg.). Developmental stages were determined by embryo morphology and hours post fertilization (hpf) (Kimmel et al., Dev. Dyn. 203:253-310, 1995). To examine the effects of lovastatin, the embryos at 20-24 hpf were immersed in the embryonic water (500 μM NaCl, 170 μM KCl, 330 μM CaCl2, and 330 μM MgSO4) at a concentration of 0.005-10 μM lovastatin (mevinolin) (Sigma) including 0.003% 1-phenyl-2-thiourea (Sigma) to inhibit pigmentation in a 24-well plate. After 32 hpf, the embryos were fixed by 4% paraformaldehyde in PBS.
Whole zebrafish antibody staining: Zebrafish embryos were fixed by 4% paraformaldehyde in PBS overnight. After fixation, the embryos were washed by PBS and stored for at least 1 hour at −20° C. in methanol, and permeabilized for 30 minutes at −20° C. in acetone. Embryos were incubated with blocking buffer (1% BSA, 0.1% Tween-20 in PBS), and incubated with diluted primary antibody, anti-slow twitch myosin F59 (1:100; Developmental Studies Hybridoma Bank (DSHB), Department of Biological Sciences, University of Iowa) (Crow et al., Dev. Biol. 118:333-342, 1986; Devoto et al., Development 122:3371-3380, 1996) in blocking solution for overnight at 4° C. Staining was detected by using Alexa Fluor(R) 594 goat anti-mouse IgG (H+L) (1:200; Invitrogen) in blocking solution for 4 hours at room temperature (Birely et al., Dev. Biol. 280:162-176, 2005).

zebrafish atrogin-1 = assay: Zebrafish atrogin-1 protein by Western blotting; format: in vivo, zebrafish (Danio rerio); settings: 12 hours; for atrogin-1 expression in zebrafish embryos: 2.5 μM compound alone
Experimental: Western blotting: Zebrafish embryos were homogenized in SDS sample buffer (30 embryos/30 μL of sample buffer) with microfuge pestle until the lysate became uniform in consistency and there was no longer stringy. The lysate was boiled for 5 minutes and centrifuged supernatant was processed for Western blotting (Hanai et al., J. Cell Biol. 158:529-539, 2002). […] (GAPDH) antibody was from Santa Cruz Biotechnology.

[3] = perillyl alcohol 1.0 mM for 24 hours, wildtype myotubes
[4] = 2.5 μM compound with lovastatin, 24 hours, myotube culture
[5] = lovastatin 24 hours, wildtype cultures
[6] = mevalonate 100 μM + lovastatin 1 μM, 24 hours

CC(=O)N[C@@H](CSC/C=C(\C)CC/C=C(\C)CCC=C(C)C)C(=O)O [AFC, N-acetyl-S-farnesyl-L-cysteine]
myotube diameter / myotube integrity ([1]; 30 μM compound, 24 hours, wildtype myotubes): no effect
atrogin-1 protein expression (atrogin-1 protein; 24 hours): no effect
atrogin-1 mRNA expression (atrogin-1 mRNA; 24 hours): no effect

CC(=O)N[C@@H](CSC/C=C(\C)CC/C=C(\C)CC/C=C(\C)CCC=C(C)C)C(=O)O [AGGC, N-acetyl-S-geranylgeranyl-L-cysteine]
effect on myotubes ([2]; 30 μM AGGC, 24 hours, atrogin-1 knockout myotubes): resistant to this reagent
atrogin-1 protein expression (atrogin-1 protein; 24 hours): induction
atrogin-1 mRNA expression (atrogin-1 mRNA; 24 hours): induction

C=C(C)[C@@H]1CC=C(CO)CC1 [Perillyl alcohol, perillyl alcohol]
damage of myotubes [1, 3]: marked damage
atrogin-1 protein levels (atrogin-1 protein; [3]): induction
muscle fibers in zebrafish embryos (zebrafish embryos; 0.1 to 1.0 mM perillyl alcohol for 12 hours): dramatic thinning of muscle fibers and morphologic damage
atrogin-1 mRNA levels (atrogin-1 mRNA; [3]): induction

CC(C)=CCCC(C)=CCCC(C)=CCO [farnesol]
fiber diameter in myotube culture ([1]; 24 hours): neither 2.5 μM farnesol nor 2.5 μM geranylgeranol alone had any effect
fiber diameter in zebrafish embryos (zebrafish embryos; 12 hours): neither 2.5 μM farnesol nor 2.5 μM geranylgeranol alone had any effect
atrogin-1 expression in zebrafish embryos (zebrafish atrogin-1): neither 2.5 μM farnesol nor 2.5 μM geranylgeranol alone had any effect
atrogin-1 expression in myotube culture (atrogin-1 mRNA; 24 hours): neither 2.5 μM farnesol nor 2.5 μM geranylgeranol alone had any effect

CC(C)=CCC/C(C)=C/CC/C(C)=C/CC/C(C)=C/CO [geranylgeranol]
fiber diameter in myotube culture ([1]; 24 hours): neither 2.5 μM farnesol nor 2.5 μM geranylgeranol alone had any effect
fiber damage in myotube culture ([1]; 2.5 μM compound with lovastatin, 24 hours): reduced the degree
degree of atrogin-1 protein induction (atrogin-1 protein; [4]): reduced the degree
fiber diameter in zebrafish embryos (zebrafish embryos; 12 hours): neither 2.5 μM farnesol nor 2.5 μM geranylgeranol alone had any effect
fiber damage in zebrafish embryos (zebrafish embryos; 2.5 μM compound with lovastatin, 12 hours): reduced the degree
atrogin-1 expression in zebrafish embryos (zebrafish atrogin-1): neither 2.5 μM farnesol nor 2.5 μM geranylgeranol alone had any effect
degree of atrogin-1 induction in zebrafish embryos (zebrafish atrogin-1; 2.5 μM compound with lovastatin): reduced the degree
atrogin-1 expression in myotube culture (atrogin-1 mRNA; 24 hours): neither 2.5 μM farnesol nor 2.5 μM geranylgeranol alone had any effect
degree of atrogin-1 mRNA induction (atrogin-1 mRNA; [4]): reduced the degree

CC[C@H](C)C(=O)O[C@H]1C[C@@H](C)C=C2C=C[C@H](C)[C@H](CC[C@@H]3C[C@@H](O)CC(=O)O3)[C@H]21 [lovastatin]
myotube diameter ([1]; 0.5 to 1.0 μM lovastatin for 24 hours, wildtype myotubes): dose-dependent reduction in myotube diameter
myotube diameter ([2]; 0.5 to 1.0 μM lovastatin for 24 hours, atrogin-1 knockout cultures): resistant to lovastatin-induced reduction in myotube diameter
atrogin-1 protein levels (atrogin-1 protein; [5]): dose-dependent increase
muscle phenotypes (longitudinal muscle fiber staining, myosin heavy chain antibody) (zebrafish embryos; lovastatin alone, zebrafish in vivo model): clear dose-dependent muscle phenotypes
lovastatin concentration giving class 2 changes (fiber thinning, attenuation of MHC staining) (zebrafish embryos; zebrafish embryos, higher concentrations): 0.05 to 0.5 µM
lovastatin concentration giving class 1 changes (bowing, gap formation, fiber disruption) (zebrafish embryos; zebrafish embryos, low concentration): 0.025 to 0.05 µM
lovastatin concentration giving class 3 changes (irregular somite boundries) (zebrafish embryos; zebrafish embryos, maximal concentration): 1.0 to 5.0 µM
atrogin-1 mRNA levels (atrogin-1 mRNA; [5]): dose-dependent increase

CC(O)(CCO)CC(=O)O (stereo not shown) [mevalonate]
reduction of myotube diameter caused by lovastatin [1, 6]: completely prevented
effect on the muscle cultures when administered alone ([1]; mevalonate 100 μM alone, 24 hours): no effect
atrogin-1 protein induction caused by lovastatin (atrogin-1 protein; [6]): completely prevented
development of zebrafish myofiber damage (zebrafish embryos; 100 μM mevalonate + 0.05 to 1.0 μM lovastatin, 12 hours): completely prevented
zebrafish atrogin-1 induction (zebrafish atrogin-1; 100 μM mevalonate + 0.05 to 1.0 μM lovastatin): completely prevented
atrogin-1 mRNA induction caused by lovastatin (atrogin-1 mRNA; [6]): completely prevented
